Experimental data: ChEMBL document CHEMBL1201862, “PubChem BioAssay data set” (2004)
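Following 48 hours of exposure in 96-well plates, responses at five concentrations were used to interpolate endpoints linearly. At the GI50, growth is halved.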 Calls of active or inactive are those of the source. Rule as the data show it: active = GI50 up to about 1.1 µM and inactive = higher.

Experiments:
Assay in all cases: DTP human tumour cell line panel, 48 h
786-0 = test system: 786-0
CCRF-CEM = test system: CCRF-CEM
HCC 2998 = test system: HCC 2998
HL-60 = test system: HL-60
HOP-92 = test system: HOP-92
HT-29 = test system: HT-29
KM12 = test system: KM12
LXFL 529 = test system: LXFL 529
M19-MEL = test system: M19-MEL
MOLT-4 = test system: MOLT-4
NCI-H226 = test system: NCI-H226
NCI-H460 = test system: NCI-H460
SF-295 = test system: SF-295
SK-MEL-5 = test system: SK-MEL-5
SN12C = test system: SN12C
SNB-75 = test system: SNB-75
SF-539 = test system: SF-539

Measured: GI50

CC1SC2=NC3=C(c4ccccc4C3=O)C(c3ccc(Br)cc3)N2C1=O (stereo not given)
inactive: 786-0 64.4 µM | CCRF-CEM 33.3 µM | HCC 2998 60.8 µM | HL-60 22.4 µM | HOP-92 29 µM | HT-29 > 100 µM | KM12 > 100 µM | LXFL 529 53 µM | M19-MEL 56.9 µM | MOLT-4 31.6 µM | NCI-H226 23.2 µM | NCI-H460 > 100 µM | SF-295 56.9 µM | SK-MEL-5 41.2 µM | SN12C 37.8 µM | SNB-75 24.5 µM

CCc1cccc(C)c1NC(=O)C(=O)Cc1nc2ccccc2o1
inactive: 786-0 > 100 µM | CCRF-CEM > 100 µM | HCC 2998 > 100 µM | HL-60 > 100 µM | HOP-92 > 100 µM | HT-29 > 100 µM | LXFL 529 > 100 µM | M19-MEL > 100 µM | MOLT-4 > 100 µM | NCI-H226 > 100 µM | NCI-H460 > 100 µM | SF-295 > 100 µM | SF-539 > 100 µM | SN12C > 100 µM

OC12CCCCCC1(N1CCOCC1)c1ccccc12 (stereo not given)
inactive: 786-0 > 100 µM | CCRF-CEM > 100 µM | HCC 2998 > 100 µM | HL-60 > 100 µM | HT-29 > 100 µM | KM12 > 100 µM | LXFL 529 > 100 µM | M19-MEL > 100 µM | MOLT-4 > 100 µM | NCI-H226 > 100 µM | NCI-H460 > 100 µM | SF-295 > 100 µM | SF-539 > 100 µM | SK-MEL-5 > 100 µM | SN12C > 100 µM | SNB-75 > 100 µM

O=C(Cc1ccccc1)NN1C(=O)C(Cl)C1c1cc(Br)cc(Br)c1O (stereo not given)
inactive: 786-0 10.1 µM | CCRF-CEM 3.05 µM | HCC 2998 13.8 µM | HL-60 2.13 µM | HT-29 21.6 µM | KM12 40.1 µM | LXFL 529 13.5 µM | M19-MEL 15.8 µM | MOLT-4 2.62 µM | NCI-H226 14.7 µM | NCI-H460 3.87 µM | SF-295 12.3 µM | SK-MEL-5 13.6 µM | SN12C 21.3 µM | SNB-75 16.2 µM

C#CC1(O)c2ccccc2C(=O)c2ccccc21
inactive: 786-0 > 100 µM | CCRF-CEM > 100 µM | HCC 2998 > 100 µM | HL-60 > 100 µM | HOP-92 21.6 µM | HT-29 > 100 µM | KM12 > 100 µM | LXFL 529 > 100 µM | M19-MEL > 100 µM | MOLT-4 > 100 µM | NCI-H226 > 100 µM | NCI-H460 > 100 µM | SF-295 > 100 µM | SF-539 > 100 µM | SN12C > 100 µM

C/C(CC(=O)Nc1cccc(Cl)c1C)=N\NC(=O)c1ccncc1
inactive: 786-0 > 100 µM | CCRF-CEM > 100 µM | HCC 2998 > 100 µM | HL-60 > 100 µM | HOP-92 > 100 µM | HT-29 > 100 µM | KM12 > 100 µM | LXFL 529 > 100 µM | M19-MEL > 100 µM | MOLT-4 > 100 µM | NCI-H226 > 100 µM | NCI-H460 > 100 µM | SF-295 > 100 µM | SF-539 > 100 µM | SK-MEL-5 > 100 µM | SNB-75 > 100 µM

CCOC(=O)C1(C(=O)OCC)OC(=O)NC2=C1CCCC2
inactive: 786-0 > 100 µM | CCRF-CEM > 100 µM | HCC 2998 > 100 µM | HL-60 > 100 µM | HOP-92 > 100 µM | HT-29 > 100 µM | KM12 > 100 µM | LXFL 529 > 100 µM | M19-MEL > 100 µM | MOLT-4 > 100 µM | NCI-H460 > 100 µM | SF-295 > 100 µM | SF-539 > 100 µM | SK-MEL-5 > 100 µM | SNB-75 > 100 µM

OC1/C(=C/c2ccccc2)CNC/C1=C\c1ccccc1 (stereo not given)
inactive: 786-0 > 100 µM | CCRF-CEM 40.8 µM | HCC 2998 > 100 µM | HL-60 92.7 µM | HOP-92 96.8 µM | HT-29 89.7 µM | KM12 > 100 µM | LXFL 529 > 100 µM | M19-MEL > 100 µM | MOLT-4 > 100 µM | NCI-H460 > 100 µM | SF-295 > 100 µM | SF-539 > 100 µM | SK-MEL-5 > 100 µM | SN12C > 100 µM | SNB-75 75.7 µM

O=Cc1ccc2c(c1-c1c(C=O)ccc3c1OCO3)OCO2
inactive: 786-0 > 100 µM | CCRF-CEM 85.1 µM | HCC 2998 > 100 µM | HL-60 > 100 µM | HT-29 > 100 µM | KM12 > 100 µM | LXFL 529 > 100 µM | M19-MEL > 100 µM | MOLT-4 > 100 µM | NCI-H226 > 100 µM | NCI-H460 > 100 µM | SF-295 > 100 µM | SF-539 > 100 µM | SK-MEL-5 > 100 µM | SN12C > 100 µM | SNB-75 > 100 µM

O=C(Sc1sc(=S)sc1SC(=O)c1ccccc1)c1ccccc1
inactive: 786-0 > 100 µM | CCRF-CEM > 100 µM | HCC 2998 34.2 µM | HL-60 > 100 µM | HOP-92 50.6 µM | HT-29 36.6 µM | KM12 37.4 µM | LXFL 529 > 100 µM | M19-MEL 21.7 µM | MOLT-4 > 100 µM | NCI-H460 > 10 µM | SF-295 33.7 µM | SF-539 46.2 µM | SK-MEL-5 > 100 µM | SN12C 93.5 µM | SNB-75 30.3 µM

C#CCC(N)(CO)C(=O)O (stereo not given)
inactive: 786-0 > 100 µM | CCRF-CEM > 10 µM | HCC 2998 > 100 µM | HL-60 > 100 µM | HOP-92 > 100 µM | HT-29 > 100 µM | KM12 > 100 µM | LXFL 529 > 100 µM | M19-MEL > 100 µM | MOLT-4 > 100 µM | NCI-H226 > 100 µM | NCI-H460 > 100 µM | SF-295 > 100 µM | SF-539 > 100 µM | SK-MEL-5 > 100 µM | SNB-75 82.6 µM

COCC(OC)C(CC=C(C#N)C#N)OC (stereo not given)
inactive: 786-0 > 100 µM | CCRF-CEM > 100 µM | HCC 2998 > 100 µM | HL-60 > 100 µM | HOP-92 > 100 µM | HT-29 > 100 µM | KM12 > 100 µM | LXFL 529 > 100 µM | M19-MEL > 100 µM | MOLT-4 > 100 µM | SF-295 > 100 µM | SF-539 > 100 µM | SK-MEL-5 > 100 µM | SN12C > 100 µM

Cn1c(=O)nc2n(-c3cccc(Br)c3)c3ccccc3nc-2c1=O
inactive: 786-0 3.71 µM | CCRF-CEM 5.82 µM | HCC 2998 2.59 µM | HL-60 2.54 µM | HT-29 2.82 µM | KM12 4.8 µM | LXFL 529 6.1 µM | M19-MEL 1.43 µM | NCI-H226 8.38 µM | NCI-H460 2.96 µM | SF-295 5.73 µM | SF-539 5.42 µM | SK-MEL-5 1.75 µM | SN12C 4.78 µM | SNB-75 9.82 µM
